Experiments:
[1] = biological target: 5-HT₁; assay: Receptor binding assay, ³H-5-HT; settings: ³H-5-HT (5 nM) binding, rat brain (striatal) membranes, 10 minutes at 37°C; read-out: IC₅₀
Protocol: (§1) The method of Peroulka & Snyder (Mol.Pharmacol. 16, 687-699, 1979) was used. Male Sprague-Dawley rats weighing 150-200 g were decapitated, and their brains were rapidly removed. The striata were dissected, pooled and homogenized in 50 mM Tris-HCl buffer (pH 7.6). The membrane fraction was collected by centrifugation (48 000 g for ten minutes), washed once with the buffer, and resuspended in 50 mM Tris HCl (pH 7.6) containing 0.1% ascorbic acid, 10 mM paragyline, 120 mM NaCl, 5 mM KCl, 2 mM CaCl₂ and 1 mM MgCl₂. The suspension was preincubated at 37°C for 10 minutes and then kept on ice until use.
(§2) The assays have been carried out using a cell harvester equipment. The incubations were made in quadruplicate, each well containing membrane suspension, ³H-spiperone (0.4 nM) or ³H-5-HT (5 nM) and the test compound in a final volume of 0.5 ml. After incubation for 10 minutes at 37°C, the contents of the wells were rapidly filtered and washed on Whatman GF/B filters using the Cell harvester. The specific binding was defined as the difference of radioligand bound in the presence and in the absence of a specific displacer (d-LSD, lµM and 5-HT, 10 µM for ³4-spiperone and ³H-5-HT, respectively). The test results are expressed as IC₅₀. The IC₅₀ value is given in nM, indicates the concentration of the test substance which reduces the amount of specifically bound radioligand by 50%..

[2] = biological target: T1, 5-HT₂ (Rattus norvegicus, UniProt P14842); assay: Receptor binding assay, ³H-Ketanserin; settings: ³H-Ketanserin binding, rat brain membranes
T1 construct: from tissue
T1 sequence (P14842 whole entry): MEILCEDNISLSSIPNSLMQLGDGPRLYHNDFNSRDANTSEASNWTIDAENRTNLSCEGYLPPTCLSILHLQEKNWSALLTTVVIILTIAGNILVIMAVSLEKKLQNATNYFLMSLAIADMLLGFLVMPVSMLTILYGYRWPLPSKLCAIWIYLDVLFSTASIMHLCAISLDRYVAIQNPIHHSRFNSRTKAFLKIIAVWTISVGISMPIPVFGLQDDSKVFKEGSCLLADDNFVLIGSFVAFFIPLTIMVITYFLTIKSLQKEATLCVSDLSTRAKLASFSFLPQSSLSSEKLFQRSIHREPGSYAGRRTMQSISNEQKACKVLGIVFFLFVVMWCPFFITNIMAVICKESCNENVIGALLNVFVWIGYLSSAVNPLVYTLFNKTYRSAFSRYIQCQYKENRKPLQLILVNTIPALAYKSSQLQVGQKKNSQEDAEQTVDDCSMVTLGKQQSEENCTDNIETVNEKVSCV

[3] = biological target: T2, Dopamine-D₂ (Rattus norvegicus, UniProt P61169); assay: Receptor binding assay, ³H-spiroperidol; settings: ³H-spiroperidol binding, rat brain membranes
T2 construct: The striata were dissected, pooled and homogenized in 50 mM Tris-HCl buffer (pH 7.6); from tissue; host or cells: rat striatum membrane fraction
T2 sequence (P61169 whole entry): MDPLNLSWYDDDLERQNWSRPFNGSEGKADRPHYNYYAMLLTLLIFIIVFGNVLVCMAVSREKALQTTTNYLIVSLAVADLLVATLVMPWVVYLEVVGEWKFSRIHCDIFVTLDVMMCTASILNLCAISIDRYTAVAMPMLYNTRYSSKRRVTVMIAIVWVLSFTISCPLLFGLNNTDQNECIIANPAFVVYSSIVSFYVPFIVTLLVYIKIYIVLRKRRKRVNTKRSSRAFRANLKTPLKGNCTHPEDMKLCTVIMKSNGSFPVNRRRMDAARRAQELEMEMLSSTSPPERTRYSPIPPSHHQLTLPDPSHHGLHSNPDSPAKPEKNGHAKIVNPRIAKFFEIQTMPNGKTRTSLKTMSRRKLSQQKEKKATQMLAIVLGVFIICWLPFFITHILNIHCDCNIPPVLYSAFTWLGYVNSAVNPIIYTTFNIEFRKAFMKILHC
Protocol: as §1, §2

CCCN(CCC)C1COc2cccc(O)c2C1 (stereo not drawn) [3-di-propylamino-5-hydroxychroman, 3-dipropylamino-5-hydroxychroman]
IC50 [1]: 83 nM
activity in ³H-Ketanserin (5-HT₂) receptor binding [2]: inactive
activity in ³H-spiroperidol (Dopamine-D₂) receptor binding [3]: inactive
